According to PMC11154582, “Modeling the Blood-Brain Barrier Permeability of Potential Heterocyclic Drugs via Biomimetic IAM Chromatography Technique Combined with QSAR Methodology” (Molecules, 2024):

System: not listed separately
Assay: Biomimetic IAM chromatography (log kw, IAM)
Format: physicochemical
Conditions: IAM.PC.DD2 column, buffered acetonitrile, pH 7.4, 25 °C, extrapolated to buffer
Method: High performance liquid chromatography (HPLC) measurements were performed on a Shimadzu Vp liquid chromatographic system (Shimadzu, Izabelin, Poland). This instrument was equipped with LC 10AT pump, SPD 10A ultraviolet-visible detector, SCL 10A system controller, CTO-10 AS chromatographic oven, and a Rheodyne injector valve with a 20 μL loop. As the stationary phase Regis IAM.PC.DD2 column, 100 × 4.6 mm i.d., 10 μm (Morton Grove, IL, USA) was applied.
Buffered acetonitrile mixtures were used as effluents. Acetonitrile concentration, expressed as a volume fraction, was varied within a range from 0.2 to 0.5, with a constant step of 0.1. The buffer was prepared from 0.01 mol L^−1 solutions of Na2HPO4 and citric acid, and a pH value of 7.4 was fixed before mixing with an organic modifier. The flow rate was 1.3 mL min^−1. Each compound sample was dissolved in acetonitrile to obtain a concentration of 0.005 mg mL^−1, and each solute peak was detected under ultraviolet light at a wavelength of λmax = 254 nm. Each measurement was performed at a constant temperature (25 °C) at least three times. The dead time values were measured from sodium chloride peaks.
From among 126 heterocyclic compounds evaluated in this work (Table 1), 89 structures have been investigated previously on the IAM column: these are molecules from groups III, IV, V, VI, VII, VIII, IX, XI, XIII, and XV [21, 22, 23]. The remaining ones, i.e., 37 compounds from groups I, II, X, XII and XIV, were tested in this study for the first time using the biomimetic IAM chromatographic technique. To calculate the log kw values (i.e., the logarithms of retention parameter in the buffer as the mobile phase), the retention parameters, logs k (k = (tr − t0)/t0; where tr is the solute retention time, and t0 is a dead time), that were measured for all tested compounds, were used according to Soczewiński-Wachtmeister’s equation (Equation (5)): (5) log k=logtr−t0/t0=log kw−sφ where φ denotes the volume fraction of acetonitrile as organic modifier in the mobile phase, and kw means the retention parameter corresponding to buffer as the mobile phase. The log kw values were evaluated as linear regression coefficients (Table 2).

| SMILES | log kw, IAM |
| --- | --- |
| O=c1c(-c2ccc([N+](=O)[O-])cc2)nnc2n1CCN2c1ccccc1Cl [Compound 98] | 2.16 |
| CCOc1ccc(N2CCn3c2nnc(CC(=O)NN)c3=O)cc1 [Compound 59] | 0.06 |
| O=c1c(-c2ccc([N+](=O)[O-])cc2)nnc2n1CCN2c1ccc(Cl)cc1 [Compound 100] | 2.52 |
| Cc1ccccc1N1CCn2c1nnc(-c1ccc([N+](=O)[O-])cc1)c2=O [Compound 94] | 2.52 |
| Clc1ccc(N2CCn3c(COc4cc(Cl)c(Cl)cc4Cl)nnc32)cc1 [Compound 14] | 2.55 |
| Clc1ccc(N2CCn3cnnc32)cc1Cl [Compound 5] | 1.18 |
| Cc1cccc(N2CCn3c2nnc(-c2ccc([N+](=O)[O-])cc2)c3=O)c1C [Compound 97] | 1.78 |
| c1ccc(N2CCn3cnnc32)cc1 [Compound 1] | 0.10 |
| O=c1c(-c2cccs2)nnc2n1CCN2c1ccccc1Cl [Compound 77] | 1.75 |
| Cc1cccc(N2CCn3c2nnc(-c2cccs2)c3=O)c1C [Compound 75] | 1.17 |
| Clc1ccc(OCc2nnc3n2CCN3c2ccc(Cl)cc2)cc1 [Compound 10] | 1.86 |
| O=c1c(-c2ccc([N+](=O)[O-])cc2)nnc2n1CCN2c1ccc(Cl)c(Cl)c1 [Compound 101] | 3.22 |
| O=c1c(-c2cccs2)nnc2n1CCN2c1ccc(Cl)cc1 [Compound 79] | 1.53 |
| Cc1ccc(N2CCn3c2nnc(CC(=O)NN)c3=O)cc1 [Compound 57] | 0.13 |
| Cc1ccccc1N1CCn2c1nnc(-c1cccs1)c2=O [Compound 73] | 1.54 |
| NNC(=O)Cc1nnc2n(c1=O)CCN2c1ccc(Cl)cc1 [Compound 60] | 0.32 |
| NNC(=O)Cc1nnc2n(c1=O)CCN2c1ccccc1 [Compound 56] | 0.40 |
| c1ccc(OCc2nnc3n2CCN3c2ccccc2)cc1 [Compound 6] | 0.11 |
| Cc1cc(Cl)ccc1OCc1nnc2n1CCN2c1ccc(Cl)cc1 [Compound 11] | 2.14 |
| COc1ccccc1N1CCn2c1nnc(-c1ccc([N+](=O)[O-])cc1)c2=O [Compound 96] | 1.78 |

Second part, the compound after the results:

| log kw, IAM | SMILES |
| --- | --- |
| 1.94 | Cc1ccc(N2CCn3c2nnc(-c2cccs2)c3=O)cc1 [Compound 74] |
| 1.64 | O=c1c(-c2cccs2)nnc2n1CCN2c1ccccc1 [Compound 72] |
| 0.10 | COc1ccc(N2CCn3cnnc32)cc1 [Compound 3] |
| 1.83 | Cc1ccc(N2CCn3c2nnc(-c2ccc([N+](=O)[O-])cc2)c3=O)cc1 [Compound 95] |
| 1.50 | COc1ccccc1N1CCn2c1nnc(-c1cccs1)c2=O [Compound 76] |
| 1.92 | O=c1c(-c2ccc([N+](=O)[O-])cc2)nnc2n1CCN2c1ccccc1 [Compound 93] |
| 0.06 | COc1ccc(N2CCn3c(COc4ccc(Cl)cc4)nnc32)cc1 [Compound 7] |
| 2.25 | Clc1ccc(N2CCn3c(COc4ccc(Cl)cc4Cl)nnc32)cc1 [Compound 12] |
| 0.41 | Cc1ccc(N2CCn3cnnc32)cc1 [Compound 2] |
| 0.64 | Clc1cccc(N2CCn3cnnc32)c1 [Compound 4] |
| 2.26 | O=c1c(-c2cccs2)nnc2n1CCN2c1cccc(Cl)c1 [Compound 78] |
| 2.02 | O=c1c(-c2ccc([N+](=O)[O-])cc2)nnc2n1CCN2c1cccc(Cl)c1 [Compound 99] |

System: human cancer cells
Assay: not given
Design: method as in ref [3,9,10,13,18-21] (a number printed in a supplementary file, which may have a reference list of its own: not looked up in the article's list)
Conditions: supplement ref [3,9,10,13,18-21]; cited from earlier work

| SMILES | mechanism of antiproliferative action: promoting apoptotic caspases |
| --- | --- |
| COc1ccccc1N1CCn2c1nnc(C(F)(F)F)c2=O [Compound 18] | promoting apoptotic caspases |
| O=c1c(C(F)(F)F)nnc2n1CCN2c1ccccc1Cl [Compound 19] | promoting apoptotic caspases |
| CC(C)c1nnc2n(c1=O)CCN2c1ccc(Cl)c(Cl)c1 [Compound 34] | promoting apoptotic caspases |

System: not given
Assay: not given
Conditions: IAM column; ref [22]; cited from earlier work

| SMILES | log kw, IAM |
| --- | --- |
| COc1ccccc1N1CCn2c1nnc(C(F)(F)F)c2=O [Compound 18] | 0.67 |
| O=c1c(C(F)(F)F)nnc2n1CCN2c1ccccc1Cl [Compound 19] | 0.88 |
| CC(C)c1nnc2n(c1=O)CCN2c1ccc(Cl)c(Cl)c1 [Compound 34] | 1.67 |
